In patent US20020043656A1, “GREEN ORGANIC LUMINOPHOR” (priority 2000, published 2002):
Where two headings read alike, the source gives them in different places.

How the values were obtained:
[1] = prior art, cited from earlier work
[2] = prior art; cited from earlier work
[3] = cited from earlier work; for Luminescence in toluene λmax: prior art analogs
[4] = various reagents; prior art; cited from earlier work
[5] = cited from earlier work; for Luminescence in toluene η (quantum yield): prior art analogs; for quantum yield η: prior art, medium not stated
[6] = Absolute fluorescence quantum yield, equal absorption technique; type: physicochemical
Procedure: The absolute quantum yield was determined using the equal absorption technique (A. S. Cherkasov, Z. Fiz. Khim. 29, 2209, […]).

[7] = Electron absorption spectra / extinction; type: physicochemical
Description: The compound structure was confirmed by electron absorption spectra and IR ones.

[8] = Fluorescence (luminescence) spectra; type: physicochemical; conditions: for Luminescence in toluene λmax: 365 nm excitation
Procedure: Fluorescence spectra in toluene were measured and absolute fluorescence quantum yields in crystals were determined.
The fluorescence spectra were measured using a setup including a 3MR-3 mirror monochromator, a FEU-1 8 photomultiplier, an M-95 microampermeter. A SVDT-95 lamp was used as the excitation source, the 365 nm exciting line was singled out of its spectrum.

## O=c1c2cccc3cccc(c32)c2nc3ccccc3n12 [Prior art emission range analog, 1,8-naphthoylene-1′,2′-benzimidazol]
[1]; organic media
  solubility in organic media: soluble in organic media
[1]; water
  solubility in water: essentially water-insoluble
[2]
  extinction coefficient in the absorption maximum: 8000
[3]; depending on the luminophor concentration
  luminescence spectral maximum wavelength: 490 to 510 nm
[3]
  Luminescence in toluene λmax: 490 nm
[4]
  chemical stability: chemically stable against various reagents
[5]
  Luminescence in toluene η (quantum yield): 0.5
  quantum yield η: > 0.5
[5]; listed as Lumogen yellow-green
  Luminescence in toluene η (quantum yield): > 0.5

## 1-phenyl-5-(p-methoxyphenyl)-3-[1,8-naphthoylene-1′,2′-benzimidazol-4-yl]-2-pyrazol
[6]; in toluene solution
  Luminescence in toluene η (quantum yield): 0.85
[6]; medium not stated
  quantum yield: approximately 0.82+0.05
[6]; solid state (vacuum-deposited film)
  quantum yield of photoluminescence η: 0.78
[7]
  maximum absorption (extinction coefficient): ≤ 30,000
[7]; in toluene
  Absorption λ: 412 nm
[8]
  Luminescence in toluene λmax: 510 nm
[8]; listed as Example 1
  Luminescence in toluene λmax: 495 nm
[8]; medium not stated
  λmax.lum: > 510 nm

## COc1cccc2c(-c3ccc(N(C)C)cc3)c3nn(C)cc3nc12 [Prior art structure analog, 2-methyl-5-methoxy-9-(4-dimethylaminophenyl)-2H-pyrazolo[4,3-b]quinoline]
[3]
  Luminescence in toluene λmax: 510 nm
[3]; prior art, medium not stated
  λmax.lum: 510 nm
[5]
  Luminescence in toluene η (quantum yield): 0.8
  quantum yield η: 0.8
